# Test results: publication PMC12190659, “A Near-Infrared Fluorescent Probe for Specific Imaging of Lymph Node Metastases in Ovarian Cancer via Active Targeting of the Gonadotropin-Releasing Hormone Receptor” (Biomolecules, 2025)
# Entries after “also recorded” stand apart in the source; their conditions may differ.
# Columns and labels:
# [1] = test system: lymphatic metastases in early-stage ovarian cancer; parameters: method as in PMID 38006759; details: compared with systematic lymphadenectomy; cited from earlier work
# Source text: Lymph node metastases are commonly observed in advanced ovarian cancer and are associated with a poor survival rate. Systematic lymphadenectomy seems necessary to achieve complete tumor reduction. […] In a prospectively randomized, controlled trial of lymphadenectomy in patients with primary ovarian cancer (FIGO stage IIB through IV) with macroscopically complete resection and clinically negative lymph nodes (LION trial), systematic pelvic and p ...
# folate receptor alpha = details: cited from earlier work
# Source text: Real-time guidance provided by intraoperative fluorescence imaging helps improve the resection rate of tumors. Over the past two decades, researchers have attempted to develop tumor-specific fluorophores for intraoperatively detecting ovarian cancer. Pafolacianine (OTL38), a fluorescent tracer that targets folate receptor alpha, is the first FDA-approved agent for fluorescence-guided ovarian cancer surgery. In a phase III study (NCT03180307), additional cancer lesions were identified in 33% of patients with known or suspected ovarian cancer who were scheduled to undergo cytored ...
# [2] = UV-visible absorption and fluorescence emission spectra; assay type: physicochemical; details: DMSO solution
# Experimental: The probe GnRHa-PEG-Rh760 was synthesized as shown in the scheme in Figure 1A. The NIR fluorophore Rh760 and its derivatives Rh760-PAZ and Rh760-GA were synthesized as previously reported. All probes were synthesized by Guoping Pharmaceutical (Hefei, China). Briefly, the sequence of the GnRHa peptide (D-2-Nal-D-4-Cl-Phe-D-3-Pal-Ser-Tyr-D-Cit-Leu-Arg-Pro-D-Ala-NH2) was prepared via the standard Fmoc solid-phase peptide synthesis method. After peptide chain coupling, piperidine was added, and the mixture was allowed to react for 20 min to remove Fmoc. Then, Fmoc-PEG2000-COOH and Rh760 were added in sequence and allowed to react until the resin test was colorless. The resin was washed with methanol and then shaken for 2 h with cutting fluid. The resulting reaction mixture was precipitated with ice-cold ether, yielding a blue–green solid. PEG-Rh760 without GnRHa peptide modification was synthesized as the control. The final products were evaluated by mass spectrometry (MS). The UV–visible absorption spectra were measured with a LAMBDA 750 spectrometer (PerkinElmer, Waltham, USA), and the fluorescence emission spectra were measured with a QuantaMaster 40 fluorospectrometer in DMSO solution.
# [3] = test system: subcutaneous A2780 (GnRHR-positive) ovarian cancer; assay: In vivo NIR fluorescence imaging, subcutaneous xenograft model; parameters: species or system BALB/c nude mice; details: 2.0 mg/kg, tail vein, n = 3
# Experimental: (§1) Mouse models with subcutaneous xenografts: A total of 5 × 10^6 A2780 cells were subcutaneously injected into the flanks of the mice. The tumors were allowed to grow until their diameter reached approximately 5 mm before treatment.
# (§2) The tumor-bearing mice were injected with GnRHa-PEG-Rh760 at a dose of 2.0 mg/kg body weight (n = 3). PEG-Rh760 was used as a non-targeted control probe. The probes were formulated using phosphate buffered saline (PBS) solutions with a pH of 7.4. For mice with subcutaneous xenografts and lymph node metastasis, the probe was administered via tail vein injection. For mice with peritoneal metastasis, the probe was injected intraperitoneally into the lower right abdominal region. In vivo NIR fluorescence imaging (Ex/Em = 740 nm/790 nm) was performed at different time points post-injection via the IVIS Lumina K Imaging system (PerkinElmer, Waltham, USA). Moreover, tumors, lymph nodes, and major organs were immediately dissected from sacrificed mice and imaged under NIR fluorescence. The fluorescence signals were quantified as the average radiant efficiency ([p/s/cm^2/sr]/[μW/cm^2]) via Living Image software (version 4.5, PerkinElmer, Waltham, USA).
# [4] = test system: subcutaneous A2780 ovarian cancer; assay: Ex vivo fluorescence biodistribution, subcutaneous xenograft model; assay type: in vivo, BALB/c nude mice
# Experimental: as §1, §2
# Figure S1 Mass spectra of GnRHa-PEG-Rh760 (A) and PEG-Rh760 (B).
# Figure S2 Biodistribution of GnRHa-PEG-Rh760 in mice bearing subcutaneous A2780 ovarian tumors. The mice were injected with GnRHa-PEG-Rh760 via the tail vein and monitored for 120 h. The fluorescence intensities of the ex vivo tumors and organs were measured (n=3). […]
# [5] = test system: peritoneal metastatic A2780-luciferase ovarian cancer; assay: In vivo and ex vivo NIR fluorescence imaging, peritoneal metastasis model; parameters: species or system BALB/c nude mice; details: 2.0 mg/kg, intraperitoneal injection, n = 3
# Experimental: Mouse models with peritoneal metastasis: A total of 1 × 10^7 A2780-luciferase cells were injected into the abdominal cavities of the mice. The tumors were allowed to grow for 2 weeks and monitored via bioluminescence imaging using the IVIS Lumina K Imaging system (PerkinElmer, Waltham, USA).
# as §2, with “For mice with peritoneal metastasis, the probe was injected intraperitoneally into the lower right abdominal region.” left out
# To verify the specificity of the NIR fluorescence imaging of GnRHa-PEG-Rh760, bioluminescence imaging of A2780-luciferase and ES-2-luciferase tumor-bearing mice was performed via the IVIS Lumina K Imaging system (PerkinElmer, Waltham, USA). […]
# [6] = test system: lymph node metastases of ES-2-luciferase ovarian cancer; assay: In vivo and ex vivo NIR fluorescence imaging, lymph node metastasis model; parameters: species or system BALB/c nude mice; details: 2.0 mg/kg, tail vein
# Experimental: Mouse models with lymph node metastasis: A total of 2 × 10^6 ES-2-luciferase cells were injected into the unilateral footpads of the mice. The lymph node metastases were monitored via bioluminescence imaging. Spontaneous metastases to popliteal (PO) and inguinal (IN) lymph nodes as well as occasional metastases to iliac (IL) and sciatic (SC) lymph nodes were observed after 2–3 weeks of primary tumor growth. The lymph node tissues were confirmed by histological examination and immunohistochemical staining for CK7.
# as §2
# To verify the specificity of the NIR fluorescence imaging of GnRHa-PEG-Rh760, bioluminescence imaging of A2780-luciferase and ES-2-luciferase tumor-bearing mice was performed via the IVIS Lumina K Imaging system (PerkinElmer, Waltham, USA). The mice were injected with 150 mg/kg body weight D-luciferin (YEASEN Biotech, Shanghai, China) and imaged at 15 min post-injection. Moreover, tumors, lymph nodes, and major organs were immediately dissected from sacrificed mice and imaged. Bioluminescence signals were quantified as the total flux (p/s) via Living Image software (version 4.5, PerkinElmer, Waltham, USA).
# GnRHR = biological target: T1, GnRHR (Homo sapiens, UniProt P30968); assay: Confocal fluorescence microscopy of frozen tissue sections; assay type: in vivo, BALB/c nude mice
# T1 construct: mouse model bearing subcutaneous A2780 (GnRHR-positive) ovarian cancer; endogenous in cells; host or cells: A2780 and ES-2 human ovarian cancer cells grown as xenografts or lymph node metastases in BALB/c nude mice; frozen tissue sections
# T1 sequence (P30968 1-328): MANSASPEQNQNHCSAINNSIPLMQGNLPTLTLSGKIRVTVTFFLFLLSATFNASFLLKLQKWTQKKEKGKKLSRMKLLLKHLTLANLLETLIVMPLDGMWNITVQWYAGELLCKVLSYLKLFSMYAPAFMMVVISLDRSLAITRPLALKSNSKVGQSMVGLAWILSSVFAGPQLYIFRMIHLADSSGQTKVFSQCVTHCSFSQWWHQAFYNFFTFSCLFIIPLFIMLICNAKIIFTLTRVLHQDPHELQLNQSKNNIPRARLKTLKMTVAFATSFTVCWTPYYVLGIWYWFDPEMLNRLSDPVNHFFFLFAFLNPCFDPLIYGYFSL
# Source text: To examine the binding of probes to ovarian cancer tissues, tumors, lymph nodes and skeletal muscle were obtained from sacrificed mice and then embedded in frozen section embedding medium. The frozen tissues were sectioned, fixed and mounted. Nuclei were labeled with DAPI. Fluorescence images were captured via confocal fluorescence microscopy (TCS SP5, Leica, Wetzlar, Germany).
# [7] = In vivo safety evaluation; parameters: species or system mice; details: 2.0 mg/kg, tail vein, n = 3
# Experimental: The mice were injected with GnRHa-PEG-Rh760 at a dose of 2.0 mg/kg body weight via the tail vein (n = 3). PEG-Rh760 and vehicle were used as controls. The body weights of the mice were continuously monitored. The mice were sacrificed after 6 days. Routine blood tests were conducted to assess red blood cells (RBCs), white blood cells (WBCs), and platelets (PLTs). Blood biochemistry tests were conducted to assess alanine transaminase (ALT), aspartate transaminase (AST), blood urea nitrogen (BUN), and creatinine (CREA) levels. Tissue sections from organs, including the heart, lung, liver, spleen, kidney, and muscle, were stained with hematoxylin and eosin (H&E) for histopathological analysis.
molecule,measurement,setting,value
CC1(C)C(/C=C/C=C/C=C/C=C2\N(CCCCS(=O)(=O)O)c3ccc4ccccc4c3C2(C)C)=[N+](CCCCS(=O)(=O)[O-])c2ccc3ccccc3c21 [indocyanine green],detection rate of sentinel lymph node mapping,[1],low detection rate
"CC1(C)C(/C=C/C2=C(Oc3ccc(C[C@H](NC(=O)c4ccc(NCc5cnc6nc(N)[nH]c(=O)c6n5)cc4)C(=O)[O-])cc3)C(=C/C=C3\N(CCCCS(=O)(=O)[O-])c4ccc(S(=O)(=O)[O-])cc4C3(C)C)/CCC2)=[N+](CCCCS(=O)(=O)[O-])c2ccc(S(=O)(=O)[O-])cc21.[H+].[H+].[H+].[H+] [pafolacianine, Pafolacianine]",false-positive lymph nodes,folate receptor alpha; phase I to III studies,false-positive lymph nodes were also observed
same,patients in whom additional cancer lesions were identified,"folate receptor alpha; phase III study NCT03180307, versus white light assessment and palpation",33%
"D-2-Nal-D-4-Cl-Phe-D-3-Pal-Ser-Tyr-D-Cit-Leu-Arg-Pro-D-Ala-NH2 [GnRHa-PEG-Rh760, GnRHR-targeted NIR fluorescent probe: GnRH analog peptide conjugated with Rh760 fluorophore and polyethylene glycol (PEG)]",maximum absorption peak,[2],780 nm
same,maximum emission peak,[2],805 nm
same,NIR fluorescence in subcutaneous tumors,[3]; Ex/Em 740/790 nm,High fluorescence intensity
same,duration of stronger fluorescence signals in tumors post-injection,[3],up to 72 h
same,NIR fluorescence in normal ovarian tissues,[4]; ex vivo,weak NIR fluorescence
same,biodistribution (organs of accumulation),"[4]; ex vivo fluorescence of tumors and organs, 2.0 mg/kg, tail vein, monitored for 120 h, n = 3","mainly accumulated in the tumor and liver tissues; also recorded: predominant accumulation in the tumor and liver, followed by the kidneys"
same,clearance of the probe,"[4]; ex vivo fluorescence of tumors and organs, 2.0 mg/kg, tail vein, n = 3",gradually cleared at 96 h post-injection
same,tumor-to-background (skeletal muscle) fluorescence ratio,"[4]; ex vivo, 2.0 mg/kg, tail vein, n = 3",high ratio of tumor-to-background
same,NIR fluorescence signals in peritoneal metastases,[5],high fluorescent signals
same,NIR fluorescence in metastatic lymph nodes,[6]; n = 3,well identified and detected by NIR fluorescence
same,NIR fluorescence in normal lymph nodes,[6]; n = 3,no NIR fluorescence signals were detected
same,average fluorescence intensity in metastatic versus normal lymph nodes,"[6]; n = 3, p < 0.05",significantly greater
same,binding in tumor sections (versus skeletal muscle),GnRHR; frozen sections from subcutaneous A2780 tumor-bearing mice injected with the probe,specific binding
same,binding in metastatic lymph node sections,GnRHR; frozen sections of lymph nodes from ES-2-luciferase model,specific binding
same,body weight change versus control group,[7]; 6 days,No significant body weight loss
same,"hematologic analysis: RBC, WBC, PLT, ALT, AST, BUN, CREA levels",[7]; after 6 days,no significant changes
same,"histopathology (H&E) of heart, lung, liver, spleen, kidney, muscle",[7]; after 6 days,No notable tissue injury
